# Results: ChEMBL document CHEMBL3885861, “Open TG-GATES”
# Species on record: Rattus norvegicus
# Experiment: Open TG-GATES - Regimen: Daily Repeat
# Type: toxicity, organism-based, Sprague-Dawley
# Parameters: regimen Daily Repeat, gender Male, age 6 weeks
# Settings: in vivo, po, route gavage; for gamma-GTP / ALP / ALT / AST / BUN / CRE / Ca / Cl / DBIL / GLC / IP / K / LDH / Na / PL / RALB / TBIL / TC / TG / TP: tissue Plasma; for APTT / Bas / Eos / Fbg / Hb / Ht / Lym / MCH / MCHC / MCV / Mono / Neu / PT / Plat / RBC / Ret / WBC: tissue Blood; for KIDNEY_L / KIDNEY_R / KIDNEY_TOTAL: tissue Kidney; for LIVER: tissue Liver
# [1] = 300 mg/kg, 72 h, dose level Middle, time 3 day
# [2] = 300 mg/kg, […], dose level Middle, time 7 day
# [3] = 300 mg/kg, […], dose level Middle, time 14 day
# [4] = 300 mg/kg, […], dose level Middle, time 28 day
smiles,measurement,setting,value
COC(=O)C1=C(C)NC(C)=C(C(=O)OC)C1c1ccccc1[N+](=O)[O-] [NIFEDIPINE],gamma-GTP,"100 mg/kg, […], dose level Low, time 28 day",1 IU/L
same,TERMINAL_BW,[1],223.2 g
same,APTT,[1],18.7 s
same,Bas,[1],0.4%
same,Eos,[1],1%
same,Fbg,[1],277 mg/dL
same,Hb,[1],13.5 g/dL
same,Ht,[1],41.7%
same,Lym,[1],73%
same,MCH,[1],21.3 pg
same,MCHC,[1],32.3%
same,MCV,[1],66.1 fL
same,Mono,[1],3.6%
same,Neu,[1],21%
same,PT,[1],13.8 s
same,Plat,[1],123.7 x10_4/uL
same,RBC,[1],630.8 x10_4/ul
same,Ret,[1],10.7%
same,WBC,[1],113.4 x10_2/uL
same,KIDNEY_L,[1],0.9 g
same,KIDNEY_R,[1],0.9 g
same,KIDNEY_TOTAL,[1],1.9 g
same,LIVER,[1],11.7 g
same,ALP,[1],1580.8 IU/L
same,ALT,[1],48.2 IU/L
same,AST,[1],68.4 IU/L
same,BUN,[1],14.2 mg/dL
same,CRE,[1],0.2 mg/dL
same,Ca,[1],10.9 mg/dL
same,Cl,[1],107.2 meq/L
same,DBIL,[1],0.018 mg/dL
same,GLC,[1],165.8 mg/dL
same,IP,[1],7.1 mg/dL
same,K,[1],4 meq/L
same,LDH,[1],84.2 IU/L
same,Na,[1],144.4 meq/L
same,PL,[1],159.2 mg/dL
same,RALB,[1],2.6 g/dL
same,TBIL,[1],0.03 mg/dL
same,TC,[1],89.4 mg/dL
same,TG,[1],94.2 mg/dL
same,TP,[1],5.6 g/dL
same,gamma-GTP,[1],1 IU/L
same,TERMINAL_BW,[2],254 g
same,TERMINAL_BW,[3],319.9 g
same,TERMINAL_BW,[4],380.8 g
same,APTT,[2],15.7 s
same,Bas,[2],0.2%
same,Eos,[2],1%
same,Fbg,[2],292.6 mg/dL
same,Hb,[2],13.9 g/dL
same,Ht,[2],42.7%
same,Lym,[2],69.4%
same,MCH,[2],20.7 pg
same,MCHC,[2],32.6%
same,MCV,[2],63.6 fL
same,Mono,[2],3%
same,Neu,[2],26%
same,PT,[2],13.6 s
same,Plat,[2],128.9 x10_4/uL
same,RBC,[2],671 x10_4/ul
same,Ret,[2],6.2%
same,WBC,[2],113.1 x10_2/uL
same,APTT,[3],19 s
same,Bas,[3],0%
same,Eos,[3],1%
same,Fbg,[3],281.4 mg/dL
same,Hb,[3],14.8 g/dL
same,Ht,[3],44.7%
same,Lym,[3],74.8%
same,MCH,[3],20.6 pg
same,MCHC,[3],33.2%
same,MCV,[3],62.1 fL
same,Mono,[3],3%
same,Neu,[3],20%
same,PT,[3],14 s
same,Plat,[3],117.6 x10_4/uL
same,RBC,[3],719 x10_4/ul
same,Ret,[3],4.9%
same,WBC,[3],97.5 x10_2/uL
same,APTT,[4],18.7 s
same,Bas,[4],0.4%
same,Eos,[4],1%
same,Fbg,[4],277 mg/dL
same,Hb,[4],13.5 g/dL
same,Ht,[4],41.7%
same,Lym,[4],73%
same,MCH,[4],21.3 pg
same,MCHC,[4],32.3%
same,MCV,[4],66.1 fL
same,Mono,[4],3.6%
same,Neu,[4],21%
same,PT,[4],13.8 s
same,Plat,[4],123.7 x10_4/uL
same,RBC,[4],630.8 x10_4/ul
same,Ret,[4],10.7%
same,WBC,[4],113.4 x10_2/uL
same,KIDNEY_L,[2],1 g
same,KIDNEY_R,[2],1 g
same,KIDNEY_TOTAL,[2],2 g
same,KIDNEY_L,[3],1.2 g
same,KIDNEY_R,[3],1.2 g
same,KIDNEY_TOTAL,[3],2.3 g
same,KIDNEY_L,[4],1.3 g
same,KIDNEY_R,[4],1.2 g
same,KIDNEY_TOTAL,[4],2.5 g
same,LIVER,[2],12.8 g
same,LIVER,[3],14.9 g
same,LIVER,[4],15.8 g
same,ALP,[2],1439.4 IU/L
same,ALT,[2],43.8 IU/L
same,AST,[2],68.6 IU/L
same,BUN,[2],15.4 mg/dL
same,CRE,[2],0.2 mg/dL
same,Ca,[2],10.8 mg/dL
same,Cl,[2],107.6 meq/L
same,DBIL,[2],0.012 mg/dL
same,GLC,[2],167 mg/dL
same,IP,[2],7 mg/dL
same,K,[2],3.9 meq/L
same,Na,[2],145.6 meq/L
same,PL,[2],154.4 mg/dL
same,RALB,[2],2.8 g/dL
same,TBIL,[2],0.022 mg/dL
same,TC,[2],83.4 mg/dL
same,TG,[2],102 mg/dL
same,TP,[2],5.9 g/dL
same,gamma-GTP,[2],1 IU/L
same,ALP,[3],1236.4 IU/L
same,ALT,[3],47.6 IU/L
same,AST,[3],69.4 IU/L
same,BUN,[3],18.2 mg/dL
same,CRE,[3],0.2 mg/dL
same,Ca,[3],10.9 mg/dL
same,Cl,[3],107.6 meq/L
same,DBIL,[3],0.012 mg/dL
same,GLC,[3],172.6 mg/dL
same,IP,[3],7 mg/dL
same,K,[3],4.2 meq/L
same,LDH,[3],48 IU/L
same,Na,[3],143.8 meq/L
same,PL,[3],150 mg/dL
same,RALB,[3],2.7 g/dL
same,TBIL,[3],0.018 mg/dL
same,TC,[3],79.6 mg/dL
same,TG,[3],115.8 mg/dL
same,TP,[3],5.8 g/dL
same,gamma-GTP,[3],1 IU/L
same,ALP,[4],1129.6 IU/L
same,ALT,[4],40 IU/L
same,AST,[4],73.8 IU/L
same,BUN,[4],17.8 mg/dL
same,CRE,[4],0.3 mg/dL
same,Ca,[4],10.3 mg/dL
same,Cl,[4],106.6 meq/L
same,DBIL,[4],0.012 mg/dL
same,GLC,[4],165 mg/dL
same,IP,[4],5.7 mg/dL
same,K,[4],3.8 meq/L
same,LDH,[4],56.2 IU/L
same,Na,[4],143.8 meq/L
same,PL,[4],146 mg/dL
same,RALB,[4],2.7 g/dL
same,TBIL,[4],0.026 mg/dL
same,TC,[4],73 mg/dL
same,TG,[4],126.8 mg/dL
